Earlier results, collected in patent publication US6750064B2, “Methods of screening for possible solid forms” (S.S.C.I. Inc., priority 2000, dated 2004).

Conditions: two hours after the drug was administered

SMILES	concentration of novobiocin in dog plasma
CO[C@@H]1[C@@H](OC(N)=O)[C@@H](O)[C@H](Oc2ccc3c(O)c(NC(=O)c4ccc(O)c(CC=C(C)C)c4)c(=O)oc3c2C)OC1(C)C [crystalline novobiocin, novobiocin]	no drug detectable
CO[C@@H]1[C@@H](OC(N)=O)[C@@H](O)[C@H](Oc2ccc3c(O)c(NC(=O)c4ccc(O)c(CC=C(C)C)c4)c(=O)oc3c2C)OC1(C)C [novobiocin amorphous form, novobiocin]	29300 ng/mL
